Source: PMC3894558, “Chemical signatures and new drug targets for gametocytocidal drug development” (Scientific Reports, 2014)
Read-outs that look alike come from different tables or passages of the source.

System: P. falciparum 3D7 gametocytes
Assay: alamarBlue gametocyte viability assay, strain 3D7
Assay type: cell-based, Plasmodium falciparum
Settings: for Max Resp: DMSO set at 0%, 100 nM epoxomicin set at -100%; for Curve Class / IC50: stages III-V 3D7 gametocytes; for IC50: 11 concentrations, 1:3 dilution; call rule not given here

SMILES | Max Resp (Malaria Box) | Curve Class (Malaria Box) | IC50 (Malaria Box, read-out: IC50) | IC50 (Malaria Box) | IC50 (Plasmodium falciparum, 3D7, Malaria Box, read-out: IC50)
Cc1cc(N2CCCC2)nc(Nc2ccc(NC(=O)CCc3ccccc3)cc2)n1 [MMV396669] | -75% | -2.2 | 11.8 µM | – | –
O=C(NCC(c1ccsc1)N1CCCCCC1)c1ccc(C(F)(F)F)cc1 (stereo not drawn) [MMV396672] | -37% | -2.2 | – | Inactive | –
COc1ccc(-c2cc3c(SCC(=O)Nc4cc(C(F)(F)F)ccc4Cl)nccn3n2)cc1 [MMV396679] | 0% | 4 | – | Inactive | –
Cc1ccc(-c2cc3c(SCC(=O)Nc4cc(C(F)(F)F)ccc4Cl)nccn3n2)cc1 [MMV396680] | -21% | 4 | – | Inactive | –
Cc1cc(NC(=O)c2cccc(C(F)(F)F)c2)n(-c2nc(-c3ccc4c(c3)OCO4)cs2)n1 [MMV396681] | -3% | 4 | – | Inactive | –
C[n+]1c2ccccc2nc2ccc(NCCO)cc21 [MMV396693] | -85% | -1.1 | 2.96 µM | – | –
CCN(CC)CCNc1ncnc2c1[nH]c1ccc(Cl)cc12 [MMV396703] | -81% | -1.1 | 3.72 µM | – | –
CN1CCN(c2ncnc3c2[nH]c2ccc(Cl)cc23)CC1 [MMV396704] | -57% | -2.2 | 37.2 µM | – | –
COc1cccc(Cn2c(Oc3ccccc3)nc3c2c(=O)n(C)c(=O)n3C)c1 [MMV396705] | -1% | 4 | – | Inactive | –
CC1(c2ccccc2)Nc2ccccc2-c2nc3ccccc3n21 (stereo not drawn) [MMV396715] | -84% | -2.1 | 16.6 µM | – | –
COc1ccc(CCN2C(=O)c3[nH]nc(-c4cc(Cl)c(C)cc4O)c3C2c2ccccc2F)cc1 (stereo not drawn) [MMV396717] | -70% | -2.2 | 23.5 µM | – | –
COc1cccc(C2(C)Nc3ccccc3-c3nc4ccccc4n32)c1 (stereo not drawn) [MMV396719] | -71% | -2.2 | 23.5 µM | – | –
N=c1n(CCN2CCCCC2)c2ccccc2n1CC(=O)c1ccc(Cl)c(Cl)c1 [MMV396723] | -92% | -2.1 | 14.8 µM | – | –
N#Cc1nc(Cc2cccc3ccccc23)oc1N1CCN(C(c2ccccc2)c2ccccc2)CC1 [MMV396726] | -1% | 4 | – | Inactive | –
OC(CNCC1CCCO1)Cn1c2ccc(Cl)cc2c2cc(Cl)ccc21 (stereo not drawn) [MMV396736] | -70% | -2.2 | 23.5 µM | – | –
CC(C)CNC(=O)c1c(N)n(CCc2ccccc2F)c2nc3ccccc3nc12 [MMV396744] | -70% | -1.2 | 3.32 µM | – | –
COc1ccc2c(c1)C1(Nc3ccccc3-c3nc4ccccc4n31)C(=O)N2 (stereo not drawn) [MMV396749] | -61% | -2.2 | 18.7 µM | – | –
O=C(NNc1cc(N2CCCC2)nc(N2CCCC2)n1)c1ccccc1 [MMV396770] | -93% | -2.1 | 10.5 µM | – | –
CC(C)(C)CC(C)(C)NCC(O)COc1ccc(Cl)cc1Cl (stereo not drawn) [MMV396794] | -106% | -1.1 | 2.96 µM | – | –
COc1ccc(-c2c(C)nn3c(N)c(C#N)cnc23)cc1OC [MMV396797] | -90% | -1.1 | 6.62 µM | – | –

SMILES | Max Resp (Malaria Box) | Curve Class (Malaria Box) | IC50 (Malaria Box, read-out: IC50) | IC50 (Malaria Box) | IC50 (Plasmodium falciparum, 3D7, Malaria Box, read-out: IC50)
Cc1cccc(-n2ncc3c(O)nc(-n4nc(C)cc4NC(=O)c4cc5ccccc5o4)nc32)c1 [MMV403679] | -64% | -2.2 | 18.7 µM | – | –
CCOC(=O)c1c[nH]c2c(CC)cccc2c1=O [MMV498479] | 28% | 4 | – | Inactive | –
Nc1ccn([C@@H]2O[C@H](CO)[C@@H](O)[C@H]2O)c(=O)n1 [MMV638723] | -5% | 4 | – | Inactive | –
C=CC12CCN(CC1)C(C(O)c1ccnc3ccc(OC)cc13)C2.Cl (stereo not drawn) [MMV665782] | -31% | -1.2 | 0.209 µM | – | –
CCN(CC)CCCNc1ccnc2cc3ccccc3cc12 [MMV665783] | -50% | -2.2 | – | Inactive | –
CC(C)(C)c1ccc(O)c(CNC2CCCCC2)c1 [MMV665785] | -50% | -1.2 | 0.148 µM | – | –
O=c1cc(NC2CCN(CCCc3ccccc3)CC2)c2cc(Cl)ccc2o1 [MMV665786] | -89% | -2.1 | 14.8 µM | – | –
CC(NCc1ccccc1)c1cc(Cl)ccc1O (stereo not drawn) [MMV665789] | -58% | -1.2 | 1.32 µM | – | –
FC(F)(F)c1cccc(Nc2nc3ccccc3nc2Nc2cccc(C(F)(F)F)c2)c1 [MMV665794] | -98% | -2.1 | 18.7 µM | – | –
CCOc1cc(Br)c(C(C)NC(=O)c2cccc(OC)c2)cc1OCC (stereo not drawn) [MMV665796] | -58% | -2.2 | 37.2 µM | – | –
CCCCOC(=O)c1ccc(Nc2cc(C)nc3ccc(OC)cc23)cc1 [MMV665797] | -47% | -2.2 | – | Inactive | –
FC(F)(F)c1cccc(Nc2nc(-c3ccccc3)nc3ncccc23)c1 [MMV665798] | -7% | 4 | – | Inactive | –
COc1ccc(C(=O)Nc2ccc(Cl)cc2C(=O)Nc2ccncc2)cc1 [MMV665799] | -28% | 4 | – | Inactive | –
CCOc1cc(Cl)c(C(C)NC(=O)c2ccccc2)cc1OCC (stereo not drawn) [MMV665800] | -48% | -2.2 | – | Inactive | –
CCOc1cc(Cl)c(C(C)NC(=O)c2cccc(OC)c2)cc1OCC (stereo not drawn) [MMV665803] | -58% | -2.2 | 29.6 µM | – | –
CCOc1ccc(-c2nonc2NC(=O)c2cccc(C)c2)cc1OCC [MMV665805] | -69% | -1.2 | 4.18 µM | – | –
Cc1c(C)n(CC(O)CNC2CCCCC2C)c2ccccc12 (stereo not drawn) [MMV665806] | -89% | -1.1 | 3.32 µM | – | –
O=C(Nc1cccc(C(F)(F)F)c1)c1cc(Cl)ccc1O [MMV665807] | -84% | -2.1 | 20.9 µM | – | –
Oc1ccc(Br)cc1CN1CCN(Cc2ccc(Cl)cc2)CC1 [MMV665809] | -58% | -1.2 | 3.72 µM | – | –
O=C(Nc1cccc(C2=NCCN2)c1)Nc1cccc(C2=NCCN2)c1 [MMV665810] | -78% | -2.2 | – | – | 18.7 µM

SMILES | Max Resp (Malaria Box) | Curve Class (Malaria Box) | IC50 (Malaria Box, read-out: IC50) | IC50 (Malaria Box) | IC50 (Plasmodium falciparum, 3D7, Malaria Box, read-out: IC50)
CCc1ccc(CNCC(O)c2ccccc2)cc1.Cl (stereo not drawn) [MMV665812] | -74% | -1.2 | 5.26 µM | – | –
CCOC(=O)c1cnc2ccc(OC)cc2c1NCc1ccccc1 [MMV665813] | -14% | 4 | – | Inactive | –
Oc1c(C(Nc2ccccn2)c2cccc(Oc3ccccc3)c2)ccc2cccnc12 (stereo not drawn) [MMV665814] | -107% | -2.1 | 9.35 µM | – | –
CC(C)(C)CC(C)(C)NCC(O)COc1ccc2c(c1)CCC2.Cl (stereo not drawn) [MMV665817] | -107% | -2.1 | 9.35 µM | – | –
COc1ccc2c(=O)cc(C(Cl)(Cl)Cl)oc2c1 [MMV665820] | -101% | -1.1 | 3.72 µM | – | –
Cn1c(C(=O)c2cccc3ccccc23)nc2ccccc21 [MMV665824] | -53% | -2.4 | – | Inactive | –
COc1cccc(NC(=O)Cn2c(C)c(C#N)c3ccccc32)c1 [MMV665826] | -52% | -2.2 | – | Inactive | –
CCOC(=O)c1cn(CC)c2cc(N3CCCCC3)c(F)cc2c1=O [MMV665827] | 7% | 4 | – | Inactive | –
CC1CC2=C(CC1CNCCCN(C)C)C(C)(C)CCC2 (stereo not drawn) [MMV665830] | -88% | -1.1 | 1.66 µM | – | –
CCOC(=O)c1c(NC(=O)c2ccccc2)sc2c(O)c(CN(CC)CC)ccc12 [MMV665831] | -58% | -2.2 | 7.43 µM | – | –
COc1ccc(/C=C2/SC(=Nc3ccccc3)NC2=O)cc1 [MMV665836] | 13% | 4 | – | Inactive | –
O=C(Nc1ccc(-c2nc3ccccc3[nH]2)cc1)c1ccc(Cl)c(Cl)c1 [MMV665840] | -16% | 4 | – | Inactive | –
CCCc1cc(O)c2c3c(c(=O)oc2c1)CN(C)CC3 [MMV665841] | -28% | -1.2 | 0.662 µM | – | –
O=c1c2c([nH]c3ccccc13)CCCC2 [MMV665843] | -7% | 4 | – | Inactive | –
Oc1ccc(Cl)cc1CNc1nc2ccccc2[nH]1 [MMV665850] | -50% | -2.2 | – | Inactive | –
O=C(Nc1ccc(Cl)c(Cl)c1)Nc1ccc(Cl)c(Cl)c1 [MMV665852] | -88% | -2.1 | 23.5 µM | – | –
CCOc1c(Cl)cc(CNC(C)C(O)c2ccccc2)cc1OC (stereo not drawn) [MMV665857] | -77% | -2.2 | 14.8 µM | – | –
CCCCNc1nc(NC(C)(C)C)nc(NC(C)(C)C)n1 [MMV665864] | -93% | -2.1 | 13.2 µM | – | –
Cc1cc(Nc2ccc(C)c(Cl)c2)n2nc(C(F)(F)F)nc2n1 [MMV665874] | -2% | 4 | – | Inactive | –
